Data published in PubChem BioAssay (NCI).
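Each compound was tested at five concentrations against cells in 96-well plates for 48 hours. GI50 = concentration required for 50% inhibition of growth. At the TGI there is no net growth.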

Tests used:
Experiment in all cases: growth of human tumour cells (NCI), 48 h
786-0 renal = test system: 786-0 renal
A498 renal = test system: A498 renal
A549 NSCLC = test system: A549 NSCLC
ACHN renal = test system: ACHN renal
BT-549 breast = test system: BT-549 breast
CAKI-1 renal = test system: CAKI-1 renal
CCRF-CEM leukemia = test system: CCRF-CEM leukemia
COLO 205 colon = test system: COLO 205 colon
DU-145 prostate = test system: DU-145 prostate
EKVX NSCLC = test system: EKVX NSCLC
HCC-2998 colon = test system: HCC-2998 colon
HCT-116 colon = test system: HCT-116 colon
HCT-15 colon = test system: HCT-15 colon
HL-60(TB) leukemia = test system: HL-60(TB) leukemia
HOP-62 NSCLC = test system: HOP-62 NSCLC
HOP-92 NSCLC = test system: HOP-92 NSCLC
HS 578T breast = test system: HS 578T breast
HT29 colon = test system: HT29 colon
IGROV1 ovarian = test system: IGROV1 ovarian
K-562 leukemia = test system: K-562 leukemia
KM12 colon = test system: KM12 colon
LOX IMVI melanoma = test system: LOX IMVI melanoma
M14 melanoma = test system: M14 melanoma
MALME-3M melanoma = test system: MALME-3M melanoma
MCF7 breast = test system: MCF7 breast
MDA-MB-231 breast = test system: MDA-MB-231 breast
MDA-MB-435 = test system: MDA-MB-435
MOLT-4 leukemia = test system: MOLT-4 leukemia
NCI-H226 lung = test system: NCI-H226 lung
NCI-H23 lung = test system: NCI-H23 lung
NCI-H460 lung = test system: NCI-H460 lung
NCI-H522 lung = test system: NCI-H522 lung
NCI/ADR-RES ovarian = test system: NCI/ADR-RES ovarian
OVCAR-3 ovarian = test system: OVCAR-3 ovarian
OVCAR-4 ovarian = test system: OVCAR-4 ovarian
OVCAR-5 ovarian = test system: OVCAR-5 ovarian
OVCAR-8 ovarian = test system: OVCAR-8 ovarian
PC-3 prostate = test system: PC-3 prostate
RPMI-8226 leukemia = test system: RPMI-8226 leukemia
RXF 393 renal = test system: RXF 393 renal
SF-268 CNS = test system: SF-268 CNS
SF-295 CNS = test system: SF-295 CNS
SF-539 CNS = test system: SF-539 CNS
SK-MEL-2 melanoma = test system: SK-MEL-2 melanoma
SK-MEL-28 melanoma = test system: SK-MEL-28 melanoma
SK-MEL-5 melanoma = test system: SK-MEL-5 melanoma
SK-OV-3 ovarian = test system: SK-OV-3 ovarian
SN12C renal = test system: SN12C renal
SNB-19 CNS = test system: SNB-19 CNS
SNB-75 CNS = test system: SNB-75 CNS
SR leukemia = test system: SR leukemia
SW-620 colon = test system: SW-620 colon
T-47D breast = test system: T-47D breast
TK-10 renal = test system: TK-10 renal
U251 CNS = test system: U251 CNS
UACC-257 melanoma = test system: UACC-257 melanoma
UACC-62 melanoma = test system: UACC-62 melanoma
UO-31 renal = test system: UO-31 renal
MDA-N = test system: MDA-N

COc1c(B(O)O)cccc1-c1nc2c(F)cc3[nH]ncc3c2c2c1CCCC2
GI50 (786-0 renal): 1.33 µM | TGI (786-0 renal): 17.6 µM | GI50 (A498 renal): 0.172 µM | TGI (A498 renal): 3.31 µM | GI50 (A549 NSCLC): 1.05 µM | TGI (A549 NSCLC): > 55.8 µM | GI50 (ACHN renal): 0.845 µM | TGI (ACHN renal): 42.8 µM | GI50 (BT-549 breast): 0.116 µM | TGI (BT-549 breast): 3.02 µM | GI50 (CAKI-1 renal): 0.333 µM | TGI (CAKI-1 renal): 3.26 µM | GI50 (CCRF-CEM leukemia): 0.633 µM | TGI (CCRF-CEM leukemia): 6.92 µM | GI50 (COLO 205 colon): 1.61 µM | TGI (COLO 205 colon): 6.19 µM | GI50 (DU-145 prostate): 2.18 µM | TGI (DU-145 prostate): 26.9 µM | GI50 (EKVX NSCLC): 2.61 µM | TGI (EKVX NSCLC): 34.3 µM | GI50 (HCC-2998 colon): 2.22 µM | TGI (HCC-2998 colon): 8.91 µM | GI50 (HCT-116 colon): 0.422 µM | TGI (HCT-116 colon): > 53.6 µM | GI50 (HCT-15 colon): 2.24 µM | TGI (HCT-15 colon): 27.6 µM | GI50 (HL-60(TB) leukemia): 0.436 µM | TGI (HL-60(TB) leukemia): 11.3 µM | GI50 (HOP-62 NSCLC): 0.133 µM | TGI (HOP-62 NSCLC): 27.1 µM | GI50 (HOP-92 NSCLC): 0.0184 µM | TGI (HOP-92 NSCLC): 56.8 µM | GI50 (HS 578T breast): 0.0716 µM | TGI (HS 578T breast): 20.8 µM | GI50 (HT29 colon): 3.07 µM | TGI (HT29 colon): > 44 µM | GI50 (IGROV1 ovarian): 1.41 µM | TGI (IGROV1 ovarian): 23.5 µM | GI50 (K-562 leukemia): 2.14 µM | TGI (K-562 leukemia): > 100 µM | GI50 (KM12 colon): 1.41 µM | TGI (KM12 colon): 11.7 µM | GI50 (LOX IMVI melanoma): 0.865 µM | TGI (LOX IMVI melanoma): 5.62 µM | GI50 (M14 melanoma): 3.8 µM | TGI (M14 melanoma): 15.5 µM | GI50 (MALME-3M melanoma): 3.71 µM | TGI (MALME-3M melanoma): 9.11 µM | GI50 (MCF7 breast): 1.31 µM | TGI (MCF7 breast): 13.5 µM | GI50 (MDA-MB-231 breast): 0.0423 µM | TGI (MDA-MB-231 breast): 35.9 µM | GI50 (MDA-MB-435): 0.287 µM | TGI (MDA-MB-435): 2.06 µM | GI50 (MOLT-4 leukemia): 0.844 µM | TGI (MOLT-4 leukemia): > 100 µM | GI50 (NCI-H226 lung): 1.44 µM | TGI (NCI-H226 lung): 22.7 µM | GI50 (NCI-H23 lung): 1.72 µM | TGI (NCI-H23 lung): 10.8 µM | GI50 (NCI-H460 lung): 1.79 µM | TGI (NCI-H460 lung): 11.9 µM | GI50 (NCI-H522 lung): 1.98 µM | TGI (NCI-H522 lung): 13.1 µM | GI50 (NCI/ADR-RES ovarian): 2.44 µM | TGI (NCI/ADR-RES ovarian): 22.1 µM | GI50 (OVCAR-3 ovarian): 2.87 µM | TGI (OVCAR-3 ovarian): 19.3 µM | GI50 (OVCAR-4 ovarian): 5.49 µM | TGI (OVCAR-4 ovarian): 58.3 µM | GI50 (OVCAR-5 ovarian): 2.65 µM | TGI (OVCAR-5 ovarian): 56.8 µM | GI50 (OVCAR-8 ovarian): 2.03 µM | TGI (OVCAR-8 ovarian): > 100 µM | GI50 (PC-3 prostate): 1.73 µM | TGI (PC-3 prostate): > 29 µM | GI50 (RPMI-8226 leukemia): 0.579 µM | TGI (RPMI-8226 leukemia): 4.59 µM | GI50 (RXF 393 renal): 0.0459 µM | TGI (RXF 393 renal): 1.67 µM | GI50 (SF-268 CNS): 2.1 µM | TGI (SF-268 CNS): 18.8 µM | GI50 (SF-295 CNS): 2.23 µM | TGI (SF-295 CNS): 12.8 µM | GI50 (SF-539 CNS): 0.343 µM | TGI (SF-539 CNS): 4.99 µM | GI50 (SK-MEL-2 melanoma): 2.42 µM | TGI (SK-MEL-2 melanoma): 6.8 µM | GI50 (SK-MEL-28 melanoma): 2.95 µM | TGI (SK-MEL-28 melanoma): 11.3 µM | GI50 (SK-MEL-5 melanoma): 3.08 µM | TGI (SK-MEL-5 melanoma): 11.5 µM | GI50 (SK-OV-3 ovarian): 1.5 µM | TGI (SK-OV-3 ovarian): 36.1 µM | GI50 (SN12C renal): 1.24 µM | TGI (SN12C renal): 45 µM | GI50 (SNB-19 CNS): 1.66 µM | TGI (SNB-19 CNS): 37.9 µM | GI50 (SNB-75 CNS): 0.0246 µM | TGI (SNB-75 CNS): 0.498 µM | GI50 (SR leukemia): 2.13 µM | TGI (SR leukemia): > 88.5 µM | GI50 (SW-620 colon): 0.604 µM | TGI (SW-620 colon): 14.4 µM | GI50 (T-47D breast): 2.56 µM | TGI (T-47D breast): 22.2 µM | GI50 (TK-10 renal): 0.0391 µM | TGI (TK-10 renal): > 38.4 µM | GI50 (U251 CNS): 1.77 µM | TGI (U251 CNS): > 44.9 µM | GI50 (UACC-257 melanoma): 3.37 µM | TGI (UACC-257 melanoma): 24 µM | GI50 (UACC-62 melanoma): 1.14 µM | TGI (UACC-62 melanoma): 9.53 µM | GI50 (UO-31 renal): 0.405 µM | TGI (UO-31 renal): 19.4 µM

O=C1CCCCC[C@]12SC[C@H]1CON=C12
TGI (786-0 renal): > 100 µM | TGI (A498 renal): 44.7 µM | TGI (A549 NSCLC): > 100 µM | TGI (ACHN renal): > 100 µM | TGI (BT-549 breast): > 100 µM | TGI (CAKI-1 renal): 58 µM | TGI (CCRF-CEM leukemia): > 100 µM | TGI (COLO 205 colon): > 100 µM | TGI (DU-145 prostate): > 100 µM | TGI (EKVX NSCLC): > 100 µM | TGI (HCC-2998 colon): > 100 µM | TGI (HCT-116 colon): > 100 µM | TGI (HCT-15 colon): > 100 µM | TGI (HL-60(TB) leukemia): > 100 µM | TGI (HOP-92 NSCLC): 50.2 µM | TGI (HS 578T breast): > 100 µM | TGI (HT29 colon): > 100 µM | TGI (IGROV1 ovarian): > 100 µM | TGI (K-562 leukemia): > 100 µM | TGI (KM12 colon): > 100 µM | TGI (LOX IMVI melanoma): > 100 µM | TGI (M14 melanoma): 62 µM | TGI (MALME-3M melanoma): > 100 µM | TGI (MCF7 breast): 82.4 µM | TGI (MDA-MB-435): 39.5 µM | TGI (MDA-N): 32.5 µM | TGI (MOLT-4 leukemia): > 100 µM | TGI (NCI-H226 lung): > 100 µM | TGI (NCI-H23 lung): > 100 µM | TGI (NCI-H460 lung): > 100 µM | TGI (NCI-H522 lung): 69.6 µM | TGI (NCI/ADR-RES ovarian): 83.4 µM | TGI (OVCAR-3 ovarian): > 100 µM | TGI (OVCAR-4 ovarian): > 100 µM | TGI (OVCAR-5 ovarian): > 100 µM | TGI (OVCAR-8 ovarian): > 100 µM | TGI (RPMI-8226 leukemia): > 100 µM | TGI (RXF 393 renal): 77.1 µM | TGI (SF-295 CNS): > 100 µM | TGI (SF-539 CNS): > 100 µM | TGI (SK-MEL-28 melanoma): > 100 µM | TGI (SK-MEL-5 melanoma): > 100 µM | TGI (SK-OV-3 ovarian): > 100 µM | TGI (SN12C renal): 57.6 µM | TGI (SNB-19 CNS): > 100 µM | TGI (SR leukemia): > 100 µM | TGI (SW-620 colon): > 100 µM | TGI (TK-10 renal): > 100 µM | TGI (U251 CNS): 42.2 µM | TGI (UACC-257 melanoma): > 100 µM | TGI (UACC-62 melanoma): 71.7 µM | TGI (UO-31 renal): > 100 µM
